The values below come from paper PMC8305076, “Comprehensive Evaluation of Biological Effects of Pentathiepins on Various Human Cancer Cell Lines and Insights into Their Mode of Action” (International Journal of Molecular Sciences, 2021).

Where two headings read alike, the source gives them in different places.

One experiment deals with MCF-7. Briefly: MTT cell viability assay. The format is cell-based, human. On the procedure: (§1) Distinct MTT cell viability and crystal violet cell proliferation assays were performed to assess the cytotoxicity of the compounds 1–6 on 14 human cancer cell lines. In the viability assay, cells with intact mitochondria and thus active dehydrogenases are competent to convert MTT to the corresponding insoluble formazan. The formazan can be photometrically detected after solubilization and allows for indirect conclusions about the viability of the cells as an IC50 value. In the crystal violet assay, cells are stained by the binding of the dye to the chromatin, thus allowing for a quantification of biomass that remains adherent after a treatment in comparison with a control after a specific time. Potency is defined as the growth inhibitory concentration 50% (GI50).
In addition to performing the cell viability assay under normoxia (19% atmospheric oxygen), incubations were also conducted under hypoxic conditions, i.e., atmospheric oxygen levels of 1% during the treatment for 48 h. Hypoxia is a favorable condition of the tumor microenvironment that is connected with poor outcome. Therefore, the low oxygen condition mimics better the tumor environment. The biological effect of the pentathiepins under this condition provides insight into their dependency for oxygen, which has been postulated a key component in the proposed mechanism of action (Figure 3). Consistent with the proposed mechanism of action for five of the compounds, potency decreased under hypoxic conditions; in fact for 6, the half-maximal inhibitory concentration exceeded the highest tested concentration of 10 µM in four cell lines (Figure 6, Table S3). […] In contrast to the other compounds, in some cell lines, the cytotoxic effects of 1 were more pronounced under oxygen-reduced incubation conditions (Figure 6), indicating a tangential role of oxygen availability for this pentathiepin. Especially for the breast cancer cell line MCF-7, the cytotoxicity increased substantially, indicated by a decrease of the IC50 from >10.0 µM to about 1.0 µM.
The effect of the pentathiepins on the viability of the cell lines was assessed via an MTT assay, performed as previously described. Healthy and viable cells convert the yellow soluble 3-(4,5-dimethylthiazol-2-yl)-2,5-diphenyltetrazolium bromide to the insoluble purple corresponding formazan, which can be spectrophotometrically measured. For this assay, 5000 cells (1 250 for LCLC-103H) in 0.1 mL of medium were seeded per well of a 96-well plate and incubated at standard conditions for 24 h prior to treatment. A serial dilution of the test compounds was prepared in medium, covering final concentrations from 10.0 to 0.04 µM, and 0.1 mL of the working solution was added to each well in triplicate. After 48 h, 20 µL of a 2.5 mg/mL MTT in PBS solution was pipetted into each well and further incubated for 4 h at standard conditions. Thereafter, medium was replaced with 50 µL DMSO, and the plates were put on a shaker for 5 min and subsequently read at λ = 570 nm, with a SpectraMax 384plus (Molecular Devices, Sunnyvale, CA, USA). The cell viabilities of the treatment conditions were calculated in relation to a solvent control sample. The absolute IC50 was calculated via nonlinear regression followed by interpolation of the dose–response graphs in Prism 7 (GraphPad, San Diego, CA, USA). The IC90 was derived from the IC50 by using the slope factor of the dose–response graph with the tool QuickCalcs from GraphPad (GraphPad Software, San Diego, CA, USA).
Background: Tetrazolium dyes change colour on reduction, which living cells bring about.

Experiment [1] concerns panel of 14 human cancer cell lines. Kind of experiment: crystal violet proliferation assay, whole panel. The experiment is classed as cell-based. Also on record: key to Antiproliferative effect: no impact (0); weak impact (+); strong impact (++). The conditions noted are these: for GI50: mean over the cell line panel, normoxia, read-out: GI50 CV, mean per compound; for Antiproliferative effect: summary grade. On the procedure: as §1
The antiproliferative effect of the pentathiepins on human cancer cell lines was analyzed by crystal violet assay based on the protocol of a previous publication. […] After dissolving in ethanol, the optical density was measured. Here, 1000 cells (250 for LCLC-103H) in 0.1 mL of medium were seeded per well of a 96 well plate and incubated at standard conditions for 24 h prior to treatment to allow for adhesion of the cells. A serial dilution of the test compounds was prepared in medium, covering final concentrations from 10.0 to 0.04 µM and 0.1 mL of the working solution added to each well in triplicate. Additionally, samples for each cell line were seeded and directly fixed after 24 h to measure the cell density at the beginning of treatment (t0). Fixation was performed by replacing medium with 0.1 mL of a solution containing 1% glutaraldehyde in Dulbecco’s buffer (0.2 g/L KCl, 0.1 g/L MgSO4·7 H2O, 1.55 g/L Na2HPO4·7 H2O, 0.2 g/L KH2HPO4, and 8 g/L NaCl in water) for 20 min. Plates were stored in 0.1 mL of Dulbecco’s buffer until further processing. After 96 h of treatment, the same fixation process was applied to the plates containing cells and test compounds. To stain the cells, 0.1 mL of an aqueous solution of crystal violet (0.02%) was added per well for 20 min, then discarded and the plates afterwards rinsed in clear water for 30 min. The dye was extracted in 50 µL of ethanol per well during 2 h of shaking. The plates were read at λ = 570 nm using a SpectraMax 384plus (Molecular Devices, Sunnyvale, CA, USA), and the proliferation of the treatment conditions was calculated in relation to a solvent control sample after subtracting the background value of the T0-plates. The GI50 (half-maximal growth inhibitory concentration) was calculated via nonlinear regression followed by interpolation of the dose–response graphs in Prism 7 (GraphPad, San Diego, CA, USA). […]

Where [2] appears, read: Homo sapiens, MCF7, 48 h, hypoxic (1% O2), read-out: IC50 MTT-H mean.
[3] abbreviates: Homo sapiens, MCF7, 48 h, normoxic (19% O2), read-out: IC50 MTT-N mean.

The term IC50 denotes the concentration that gives 50% inhibition. As a reminder, the GI50 is the concentration giving 50% growth inhibition. Take `CCOc1c2c(c3cnc4[nH]c(-c5ccc(OC)cc5)cc4n13)SSSSS2` [Compound 1, 11-Ethoxy-2-(4-methoxyphenyl)-3H-[1,2,3,4,5]pentathiepino[6′,7′:3,4]pyrrolo[1,2-a]pyrrolo[2,3-e]pyrazine]: the 50% inhibitory concentration (IC50) in the experiment on MCF-7 (48 h, hypoxic (1% O2), read-out: IC50 MTT-H mean) was 970 nM; with MCF-7 (setting [2]), around 1000 nM; in the experiment on MCF-7 (setting [3]), above 10000 nM. Besides, the GI50 in experiment [1] (Homo sapiens) was found to be 333 nM. Besides, the Antiproliferative effect entry in experiment [1] is listed as “++”.

In the case of `CCOc1c2c(c3ccc(C(=O)N4CCCCC4)cn13)SSSSS2` [Compound 2, (6-Ethoxy-[1,2,3,4,5]pentathiepino[6,7-a]indolizin-9-yl)(piperidinyl)methanone], the results for the IC50 in the experiment on MCF-7 (setting [2]) and with MCF-7 (setting [3]) were above 10000 nM and 3040 nM, respectively. The GI50 in experiment [1] (Homo sapiens) came to 493 nM. For the same compound, in experiment [1], the Antiproliferative effect entry is given as “+”.

Turning to `CCOc1c2c(c3ccc(C(=O)N4CCOCC4)cn13)SSSSS2` [Compound 3, (6-Ethoxy-[1,2,3,4,5]pentathiepino[6,7-a]indolizin-9-yl)(morpholino)methanone], the 50% inhibitory concentration (IC50) in the experiment on MCF-7 (setting [2]) was 3560 nM; in the experiment with MCF-7 (setting [3]), 1680 nM. The GI50 was found to be 170 nM in experiment [1] (Homo sapiens) and 174 nM in experiment [1]. Further, the Antiproliferative effect result in experiment [1] was “++”.

Consider `CCOc1c2c(c3ccc(C(=O)N(CC)CC)cn13)SSSSS2` [Compound 4, 6-Ethoxy-N,N’-diethyl-[1,2,3,4,5]pentathiepino[6,7-a]indolizine-9-carboxamide], for which the figures for the IC50 with MCF-7 (setting [2]) and with MCF-7 (setting [3]) were 3560 nM and 3210 nM, respectively. Further, in experiment [1] (Homo sapiens), the GI50 was found to be 322 nM. The Antiproliferative effect result in experiment [1] is recorded as “++”.

Take `CCOc1c2c(c3ccc(C(=O)N4CCN(C(=O)c5ccc(F)cc5)CC4)cn13)SSSSS2` [Compound 5, (6-Ethoxy-[1,2,3,4,5]pentathiepino[6,7-a]indolizin-9-yl)(4-(4-fluorobenzoyl)piperazinyl)methanone]: the IC50 in the experiment with MCF-7 (setting [2]) was 3010 nM; in the experiment with MCF-7 (setting [3]), 1640 nM. In experiment [1] (Homo sapiens), the GI50 was 267 nM. For the same compound, the Antiproliferative effect result in experiment [1] is recorded as “++”.

With `CCOc1c2c(c3ccc(C(=O)N4CCN(S(=O)(=O)c5ccc(C)cc5)CC4)cn13)SSSSS2` [Compound 6, (6-Ethoxy-[1,2,3,4,5]pentathiepino[6,7-a]indolizin-9-yl)(4-tosylpiperazinyl)methanone], the IC50 in the experiment on MCF-7 (setting [2]) is above 10000 nM; with MCF-7 (setting [3]) it was 3990 nM. Also, the GI50 in experiment [1] (Homo sapiens) turned out to be 570 nM; in experiment [1] it was 671 nM. The Antiproliferative effect entry in experiment [1] was “+”.
